Values belong to the molecule of their own block, whether it stands above or below them.
Columns and labels:
[1] = biological target: T1, Dual specificity mitogen-activated protein kinase kinase 6 (Homo sapiens) (UniProt P52564); test: Inhibition of human recombinant MAP2K6 at 500 nM related to control ULK1
T1 sequence (whole entry): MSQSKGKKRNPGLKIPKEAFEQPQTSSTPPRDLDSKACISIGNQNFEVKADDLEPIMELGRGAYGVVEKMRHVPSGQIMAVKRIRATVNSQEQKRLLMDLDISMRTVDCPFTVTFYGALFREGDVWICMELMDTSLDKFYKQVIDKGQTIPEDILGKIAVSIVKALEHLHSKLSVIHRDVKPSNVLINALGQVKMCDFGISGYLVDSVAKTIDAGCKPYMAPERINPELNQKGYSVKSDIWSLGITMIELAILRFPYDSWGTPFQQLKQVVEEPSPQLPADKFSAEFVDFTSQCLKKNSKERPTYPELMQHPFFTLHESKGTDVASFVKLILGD

[2] = biological target: Misshapen-like kinase 1 (Homo sapiens) (UniProt Q8N4C8); test: Inhibition of human recombinant MINK at 500 nM in presence of ATP by radiometric assay relative to control
Sequence of Misshapen-like kinase 1 (Homo sapiens) (Q8N4C8 whole entry, looked up): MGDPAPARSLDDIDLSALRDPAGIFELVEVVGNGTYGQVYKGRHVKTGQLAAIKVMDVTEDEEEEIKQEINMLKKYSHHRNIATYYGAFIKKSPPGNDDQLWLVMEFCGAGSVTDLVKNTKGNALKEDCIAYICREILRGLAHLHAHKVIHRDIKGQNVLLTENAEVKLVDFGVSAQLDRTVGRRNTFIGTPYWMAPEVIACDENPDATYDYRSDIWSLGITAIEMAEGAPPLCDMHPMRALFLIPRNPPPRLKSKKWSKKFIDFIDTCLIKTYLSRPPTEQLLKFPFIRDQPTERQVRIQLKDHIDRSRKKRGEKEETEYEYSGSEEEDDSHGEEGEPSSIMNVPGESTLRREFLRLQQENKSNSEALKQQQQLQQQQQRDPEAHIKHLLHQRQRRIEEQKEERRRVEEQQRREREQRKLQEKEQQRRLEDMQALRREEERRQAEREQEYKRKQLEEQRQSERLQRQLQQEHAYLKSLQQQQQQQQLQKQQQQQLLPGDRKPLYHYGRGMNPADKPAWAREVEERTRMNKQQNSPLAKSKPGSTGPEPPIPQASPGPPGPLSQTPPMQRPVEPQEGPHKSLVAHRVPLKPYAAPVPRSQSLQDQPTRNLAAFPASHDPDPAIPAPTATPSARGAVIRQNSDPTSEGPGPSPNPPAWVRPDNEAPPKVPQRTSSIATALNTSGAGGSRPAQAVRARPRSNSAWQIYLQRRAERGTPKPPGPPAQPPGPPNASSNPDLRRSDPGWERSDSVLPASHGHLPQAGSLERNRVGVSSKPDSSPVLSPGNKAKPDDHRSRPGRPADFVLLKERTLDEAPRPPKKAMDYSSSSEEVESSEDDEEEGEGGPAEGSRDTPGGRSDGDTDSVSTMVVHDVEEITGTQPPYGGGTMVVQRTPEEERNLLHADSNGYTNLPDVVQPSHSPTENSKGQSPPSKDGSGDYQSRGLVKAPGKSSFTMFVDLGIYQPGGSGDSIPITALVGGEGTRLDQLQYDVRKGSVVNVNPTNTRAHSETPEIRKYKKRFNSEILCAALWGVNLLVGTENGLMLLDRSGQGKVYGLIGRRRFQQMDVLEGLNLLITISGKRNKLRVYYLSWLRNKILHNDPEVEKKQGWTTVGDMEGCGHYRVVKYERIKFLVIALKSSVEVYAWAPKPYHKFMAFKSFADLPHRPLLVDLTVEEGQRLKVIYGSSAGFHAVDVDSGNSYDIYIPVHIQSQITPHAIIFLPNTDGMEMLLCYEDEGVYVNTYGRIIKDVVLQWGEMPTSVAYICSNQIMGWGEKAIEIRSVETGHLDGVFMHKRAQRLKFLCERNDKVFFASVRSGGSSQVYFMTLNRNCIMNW

[3] = biological target: Serine/threonine-protein kinase SIK3 (Homo sapiens) (UniProt Q9Y2K2); test: Inhibition of human recombinant QSK at 500 nM in presence of ATP by radiometric assay relative to control
Sequence of Serine/threonine-protein kinase SIK3 (Homo sapiens) (Q9Y2K2 whole entry, looked up): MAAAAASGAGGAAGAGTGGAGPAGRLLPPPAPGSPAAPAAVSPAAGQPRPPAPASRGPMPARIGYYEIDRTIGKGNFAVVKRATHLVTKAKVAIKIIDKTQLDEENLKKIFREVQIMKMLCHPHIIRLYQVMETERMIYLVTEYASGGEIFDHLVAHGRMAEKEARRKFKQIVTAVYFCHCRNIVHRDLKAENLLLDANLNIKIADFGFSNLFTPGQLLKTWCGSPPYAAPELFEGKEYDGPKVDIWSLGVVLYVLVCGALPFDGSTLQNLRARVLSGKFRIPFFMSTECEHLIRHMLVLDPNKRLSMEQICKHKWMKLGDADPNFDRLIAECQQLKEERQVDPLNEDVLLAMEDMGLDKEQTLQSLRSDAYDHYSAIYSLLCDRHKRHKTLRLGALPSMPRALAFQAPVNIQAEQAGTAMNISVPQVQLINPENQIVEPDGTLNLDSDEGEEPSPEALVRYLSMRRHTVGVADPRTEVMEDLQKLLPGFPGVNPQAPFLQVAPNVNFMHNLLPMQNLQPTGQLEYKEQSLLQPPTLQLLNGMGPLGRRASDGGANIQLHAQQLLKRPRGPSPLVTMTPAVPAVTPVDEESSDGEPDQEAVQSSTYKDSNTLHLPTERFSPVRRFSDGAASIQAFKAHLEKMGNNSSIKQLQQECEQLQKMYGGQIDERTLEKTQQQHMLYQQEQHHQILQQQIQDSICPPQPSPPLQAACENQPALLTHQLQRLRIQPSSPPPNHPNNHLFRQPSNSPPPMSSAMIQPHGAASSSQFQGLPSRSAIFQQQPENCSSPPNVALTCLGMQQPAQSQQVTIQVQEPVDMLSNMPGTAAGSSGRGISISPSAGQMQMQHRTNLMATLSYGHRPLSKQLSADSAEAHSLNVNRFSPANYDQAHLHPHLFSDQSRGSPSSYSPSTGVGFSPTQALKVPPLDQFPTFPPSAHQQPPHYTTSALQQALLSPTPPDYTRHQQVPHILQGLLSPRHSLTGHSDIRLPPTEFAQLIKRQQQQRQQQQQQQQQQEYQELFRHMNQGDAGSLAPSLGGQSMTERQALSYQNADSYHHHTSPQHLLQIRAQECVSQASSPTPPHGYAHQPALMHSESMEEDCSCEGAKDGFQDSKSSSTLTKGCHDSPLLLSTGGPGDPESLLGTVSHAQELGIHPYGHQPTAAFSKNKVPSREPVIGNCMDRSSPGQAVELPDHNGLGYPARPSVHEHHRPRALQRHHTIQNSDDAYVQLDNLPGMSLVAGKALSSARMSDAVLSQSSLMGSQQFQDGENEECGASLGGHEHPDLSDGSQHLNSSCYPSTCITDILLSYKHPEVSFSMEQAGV

[4] = biological target: Tyrosine-protein kinase CSK (Homo sapiens) (UniProt P41240); test: Inhibition of human recombinant CSK at 15 nM related to control ULK1
Sequence of Tyrosine-protein kinase CSK (Homo sapiens) (P41240 2-450 limits assumed): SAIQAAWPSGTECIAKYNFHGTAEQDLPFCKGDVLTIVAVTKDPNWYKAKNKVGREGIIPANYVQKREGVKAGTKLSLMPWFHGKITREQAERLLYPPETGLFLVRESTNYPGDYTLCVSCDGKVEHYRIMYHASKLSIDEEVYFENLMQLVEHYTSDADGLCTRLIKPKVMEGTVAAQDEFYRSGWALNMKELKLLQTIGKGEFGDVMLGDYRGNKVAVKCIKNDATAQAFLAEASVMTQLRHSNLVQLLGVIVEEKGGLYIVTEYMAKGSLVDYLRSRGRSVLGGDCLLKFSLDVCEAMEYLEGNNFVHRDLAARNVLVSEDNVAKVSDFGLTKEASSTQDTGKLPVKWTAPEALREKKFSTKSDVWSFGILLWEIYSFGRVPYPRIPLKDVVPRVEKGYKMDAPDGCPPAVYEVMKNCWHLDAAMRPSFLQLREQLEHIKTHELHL

[5] = biological target: Protein kinase C theta type (Homo sapiens) (UniProt Q04759); test: Inhibition of human recombinant PKCt at 40 nM in presence of ATP by radiometric assay relative to control
Sequence of Protein kinase C theta type (Homo sapiens) (Q04759 whole entry, looked up): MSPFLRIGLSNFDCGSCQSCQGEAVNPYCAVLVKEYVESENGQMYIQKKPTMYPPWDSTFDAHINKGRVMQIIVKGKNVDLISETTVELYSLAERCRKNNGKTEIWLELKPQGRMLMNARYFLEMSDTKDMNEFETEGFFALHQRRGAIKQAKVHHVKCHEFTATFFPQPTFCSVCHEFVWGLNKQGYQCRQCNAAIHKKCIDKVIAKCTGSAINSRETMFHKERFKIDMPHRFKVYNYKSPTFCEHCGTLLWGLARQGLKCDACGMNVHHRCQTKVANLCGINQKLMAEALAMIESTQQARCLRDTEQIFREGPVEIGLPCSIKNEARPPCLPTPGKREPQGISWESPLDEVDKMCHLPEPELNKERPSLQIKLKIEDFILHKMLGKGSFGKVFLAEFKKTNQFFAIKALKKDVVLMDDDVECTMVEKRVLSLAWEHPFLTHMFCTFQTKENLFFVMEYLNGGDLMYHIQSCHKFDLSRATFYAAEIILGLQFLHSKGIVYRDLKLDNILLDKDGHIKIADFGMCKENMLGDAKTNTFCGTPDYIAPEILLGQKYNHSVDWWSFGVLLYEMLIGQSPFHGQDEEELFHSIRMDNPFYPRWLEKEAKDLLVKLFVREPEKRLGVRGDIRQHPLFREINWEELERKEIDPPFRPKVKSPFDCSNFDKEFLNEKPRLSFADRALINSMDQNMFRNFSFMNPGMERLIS

[6] = biological target: Tyrosine-protein kinase Fgr (Homo sapiens) (UniProt P09769); test: Inhibition of human recombinant FGR at 40 nM related to control ULK1
Sequence of Tyrosine-protein kinase Fgr (Homo sapiens) (P09769 2-529 limits assumed): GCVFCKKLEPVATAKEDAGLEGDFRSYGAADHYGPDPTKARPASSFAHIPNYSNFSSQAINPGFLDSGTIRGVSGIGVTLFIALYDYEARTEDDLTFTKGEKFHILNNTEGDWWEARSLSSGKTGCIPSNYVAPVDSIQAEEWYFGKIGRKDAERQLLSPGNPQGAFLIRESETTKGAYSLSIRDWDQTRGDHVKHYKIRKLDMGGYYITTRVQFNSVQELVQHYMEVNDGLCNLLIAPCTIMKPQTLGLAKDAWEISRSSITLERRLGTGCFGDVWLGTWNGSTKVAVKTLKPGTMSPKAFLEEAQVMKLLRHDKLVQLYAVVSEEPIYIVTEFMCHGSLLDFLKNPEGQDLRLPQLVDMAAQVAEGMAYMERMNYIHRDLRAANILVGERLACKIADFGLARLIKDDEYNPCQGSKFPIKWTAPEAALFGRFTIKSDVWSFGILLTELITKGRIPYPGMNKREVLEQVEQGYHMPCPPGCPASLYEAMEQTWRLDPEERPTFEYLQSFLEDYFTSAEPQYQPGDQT

[7] = biological target: T2, Receptor-interacting serine/threonine-protein kinase 1 (Homo sapiens) (UniProt Q13546); test: Inhibition of human recombinant RIPK1 at 40 nM related to control ULK1
T2 sequence (whole entry): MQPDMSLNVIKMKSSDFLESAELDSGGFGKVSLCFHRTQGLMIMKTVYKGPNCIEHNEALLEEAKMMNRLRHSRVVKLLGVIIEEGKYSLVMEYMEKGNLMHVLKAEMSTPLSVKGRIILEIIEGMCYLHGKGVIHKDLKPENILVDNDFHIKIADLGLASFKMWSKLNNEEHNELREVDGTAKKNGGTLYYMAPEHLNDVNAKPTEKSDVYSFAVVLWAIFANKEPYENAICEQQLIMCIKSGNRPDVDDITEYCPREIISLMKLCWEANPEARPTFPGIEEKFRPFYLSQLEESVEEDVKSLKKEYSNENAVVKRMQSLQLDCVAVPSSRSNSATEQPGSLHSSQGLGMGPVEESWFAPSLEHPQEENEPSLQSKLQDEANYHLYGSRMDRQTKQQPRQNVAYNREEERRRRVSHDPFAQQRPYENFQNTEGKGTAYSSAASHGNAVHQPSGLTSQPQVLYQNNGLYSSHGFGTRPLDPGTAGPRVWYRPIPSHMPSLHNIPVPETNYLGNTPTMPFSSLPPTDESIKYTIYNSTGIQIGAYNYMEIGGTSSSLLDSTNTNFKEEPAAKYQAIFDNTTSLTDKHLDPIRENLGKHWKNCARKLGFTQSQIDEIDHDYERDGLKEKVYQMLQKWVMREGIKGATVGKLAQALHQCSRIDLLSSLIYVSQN

[8] = biological target: T3, Eukaryotic elongation factor 2 kinase (Homo sapiens) (UniProt O00418); test: Inhibition of human recombinant eEF2K at 40 nM in presence of ATP by radiometric assay relative to control
T3 sequence (whole entry): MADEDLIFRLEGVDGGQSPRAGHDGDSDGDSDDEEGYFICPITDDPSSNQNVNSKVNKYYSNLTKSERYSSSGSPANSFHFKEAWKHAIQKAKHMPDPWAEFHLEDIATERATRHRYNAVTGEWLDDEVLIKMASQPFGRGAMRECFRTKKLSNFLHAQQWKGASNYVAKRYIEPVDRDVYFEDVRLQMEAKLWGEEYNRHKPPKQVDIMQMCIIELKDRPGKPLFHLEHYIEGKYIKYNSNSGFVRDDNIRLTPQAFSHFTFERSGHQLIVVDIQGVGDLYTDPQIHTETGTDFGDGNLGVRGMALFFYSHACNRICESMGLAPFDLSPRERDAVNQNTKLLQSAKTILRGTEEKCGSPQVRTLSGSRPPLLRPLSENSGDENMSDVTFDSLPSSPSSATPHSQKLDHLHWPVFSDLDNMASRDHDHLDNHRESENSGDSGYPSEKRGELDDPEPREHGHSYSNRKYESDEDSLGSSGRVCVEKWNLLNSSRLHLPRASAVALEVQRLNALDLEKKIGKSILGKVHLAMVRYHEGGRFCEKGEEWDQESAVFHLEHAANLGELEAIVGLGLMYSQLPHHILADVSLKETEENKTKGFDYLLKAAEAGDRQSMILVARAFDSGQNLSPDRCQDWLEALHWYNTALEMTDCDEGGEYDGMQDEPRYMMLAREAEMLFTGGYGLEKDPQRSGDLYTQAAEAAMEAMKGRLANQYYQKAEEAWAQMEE

fold change (FC) [1]: 0.07 | inhibition [2]: 4% | inhibition [3]: 8%
Compound: CNC(=O)c1ccccc1Oc1nc(Nc2cc(OC)c(OC)c(OC)c2)ncc1Br

fold change (FC) [4]: 0.14
Compound: CC(C)[C@H](NC(=O)c1cc(-c2cnn3cc(-c4ccc(OCCN5CCCCC5)cc4)cnc23)cs1)C(F)(F)F

inhibition [5]: 0% | fold change (FC) [6]: 0.05 | fold change (FC) [7]: 0.03 | inhibition [8]: 7%
Compound: O=C(N[C@@H](C1CC1)C(F)(F)F)c1cc(-c2cnn3cc(-c4ccc(F)cc4)cnc23)cs1

Source: ChEMBL document CHEMBL5653631, “A Potent and Selective ULK1 Inhibitor Suppresses Autophagy and Sensitizes Cancer Cells to Nutrient Stress” (iScience, 2018)
